Consider one molecule from ChEMBL document CHEMBL1145398, “Bidirectional, iterative approach to the structural delineation of the functional "chemoprint" in GPR40 for agonist recognition” (J Med Chem, 2007).

Experiment [1] deals with Free fatty acid receptor 1 (Homo sapiens), O14842 [R258K]. Put plainly: Agonist activity at human GPR40 R258K mutant expressed in HEK-EM 293 cells assessed as effect on intracellular calcium relative to wild type. The settings on record: HEK293. Type of experiment: functional, cell-based.
Experiment [2] concerns the target Free fatty acid receptor 1 (Homo sapiens, UniProt O14842, H137F). Put plainly: Agonist activity at human GPR40 H137F mutant expressed in HEK-EM 293 cells assessed as increase in intracellular calcium. Type of experiment: functional, cell-based, HEK293. (In general: A change in cytosolic calcium serves as a functional read-out for many receptors and channels.)
For experiment [3], the target named is Free fatty acid receptor 1 (Homo sapiens, UniProt O14842, H86F). Put plainly: Agonist activity at human GPR40 H86F mutant expressed in HEK-EM 293 cells assessed as increase in intracellular calcium. Type of experiment: functional, cell-based, HEK293.
Experiment [4] deals with Free fatty acid receptor 1 (Homo sapiens, UniProt O14842, H137A). Put plainly: Agonist activity at human GPR40 H137A mutant expressed in HEK-EM 293 cells assessed as increase in intracellular calcium. It is filed as functional, cell-based, HEK293.
For experiment [5], the system named is Free fatty acid receptor 1 (Homo sapiens), O14842 [R258A]. Put plainly: Agonist activity at human GPR40 R258A mutant expressed in HEK-EM 293 cells assessed as effect on intracellular calcium relative to wild type. It is filed as functional, cell-based. As to conditions: HEK293.
In experiment [6] the test system is Free fatty acid receptor 1 (Homo sapiens), O14842 [V237F]. Put plainly: Agonist activity at human GPR40 V237F mutant expressed in HEK-EM 293 cells assessed as increase in intracellular calcium. Type of experiment: functional, cell-based. As to conditions: HEK293.
Experiment [7] addresses Free fatty acid receptor 1 (Homo sapiens, UniProt O14842). Put plainly: Agonist activity at human GPR40 expressed in HEK-EM 293 cells assessed as increase in intracellular calcium. Type of experiment: functional, cell-based, HEK293.
For experiment [8], the target named is Free fatty acid receptor 1 (Homo sapiens, UniProt O14842, N244A). Put plainly: Agonist activity at human GPR40 N244A mutant expressed in HEK-EM 293 cells assessed as increase in intracellular calcium. It is filed as functional, cell-based, HEK293.
The subject of experiment [9] is Free fatty acid receptor 1 (Homo sapiens), O14842 [R183A]. Put plainly: Agonist activity at human GPR40 R183A mutant expressed in HEK-EM 293 cells assessed as effect on intracellular calcium relative to wild type. Type of experiment: functional, cell-based. As to conditions: HEK293.
The target in experiment [10] is Free fatty acid receptor 1 (Homo sapiens, UniProt O14842, H86A). Put plainly: Agonist activity at human GPR40 H86A mutant expressed in HEK-EM 293 cells assessed as increase in intracellular calcium. Type of experiment: functional, cell-based, HEK293.
Free fatty acid receptor 1 (Homo sapiens, UniProt O14842, H86A), sequence (O14842 whole entry H86A): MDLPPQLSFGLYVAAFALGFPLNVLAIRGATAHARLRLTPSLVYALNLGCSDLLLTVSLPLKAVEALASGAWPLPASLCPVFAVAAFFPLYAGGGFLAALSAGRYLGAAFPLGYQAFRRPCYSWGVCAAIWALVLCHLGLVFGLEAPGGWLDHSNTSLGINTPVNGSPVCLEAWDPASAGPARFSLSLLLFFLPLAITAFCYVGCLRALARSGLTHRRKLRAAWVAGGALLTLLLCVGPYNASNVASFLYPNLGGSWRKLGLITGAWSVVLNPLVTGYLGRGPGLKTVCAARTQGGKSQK

Free fatty acid receptor 1 (Homo sapiens, UniProt O14842), sequence (O14842 whole entry): as the sequence (O14842 whole entry H86A) above, with A86H counted along it
Free fatty acid receptor 1 (Homo sapiens, UniProt O14842, H137F), sequence (O14842 whole entry H137F): as the sequence (O14842 whole entry H86A) above, with A86H, H137F counted along it
Free fatty acid receptor 1 (Homo sapiens), O14842 [V237F], sequence (O14842 whole entry V237F): as the sequence (O14842 whole entry H86A) above, with A86H, V237F counted along it
Free fatty acid receptor 1 (Homo sapiens, UniProt O14842, N244A), sequence (O14842 whole entry N244A): as the sequence (O14842 whole entry H86A) above, with A86H, N244A counted along it
Free fatty acid receptor 1 (Homo sapiens), O14842 [R183A], sequence (O14842 whole entry R183A): as the sequence (O14842 whole entry H86A) above, with A86H, R183A counted along it
Free fatty acid receptor 1 (Homo sapiens, UniProt O14842, H137A), sequence (O14842 whole entry H137A): as the sequence (O14842 whole entry H86A) above, with A86H, H137A counted along it
Free fatty acid receptor 1 (Homo sapiens, UniProt O14842, H86F), sequence (O14842 whole entry H86F): as the sequence (O14842 whole entry H86A) above, with A86F counted along it
Free fatty acid receptor 1 (Homo sapiens), O14842 [R258K], sequence (O14842 whole entry R258K): as the sequence (O14842 whole entry H86A) above, with A86H, R258K counted along it
Free fatty acid receptor 1 (Homo sapiens), O14842 [R258A], sequence (O14842 whole entry R258A): as the sequence (O14842 whole entry H86A) above, with A86H, R258A counted along it

In the case of `O=C(O)CCc1ccc(NCc2cccc(Oc3ccccc3)c2)cc1` [GW9508], the Fold change in [1] is over 100; in experiment [5], over 100; in experiment [6], 1.1; in experiment [9] it was over 100. Moreover, the EC50 (usually the concentration giving half of the maximal effect) in [2] is 6.8 µM; in [3], 1.2 µM; in [4], over 30 µM; in experiment [7] it was 0.224 µM; in experiment [8], 17.8 µM; in experiment [10], 2.2 µM. For the same molecule, the Activity in [7] (HEK293) is 223 nM.
